Reference: ChEMBL document CHEMBL1132903 (Bioorg Med Chem Lett, 2000)
Where a SMILES comes first, the peptide text is derived from it.

Assays:
Serine protease 1 [1] = biological target: T1, Serine protease 1 (Homo sapiens, UniProt P07477); experiment: Competitive inhibition constant against trypsin using the reporter substrate Ac-R-pNa
Chymotrypsinogen A [2] = biological target: T2, Chymotrypsinogen A (Bos taurus, UniProt P00766); experiment: Competitive inhibition constant against Chymotrypsinogen using the reporter substrate Suc-AAPA-pNa; No inhibition
[3] = biological target: Pancreatic elastase (Sus scrofa) (UniProt P08419+P00772); experiment: Inhibition constant for uncompetitive inhibition of Suc-AAPA and Pancreatic elastase; assay type: protein assay
[4] = biological target: T3, Chymotrypsin-like elastase family member 2A (Sus scrofa, UniProt P08419); experiment: Peptide was tested for inhibition constant for uncompetitive inhibition using Suc-AAPA and Pancreatic elastase
T3 sequence (P08419 whole entry): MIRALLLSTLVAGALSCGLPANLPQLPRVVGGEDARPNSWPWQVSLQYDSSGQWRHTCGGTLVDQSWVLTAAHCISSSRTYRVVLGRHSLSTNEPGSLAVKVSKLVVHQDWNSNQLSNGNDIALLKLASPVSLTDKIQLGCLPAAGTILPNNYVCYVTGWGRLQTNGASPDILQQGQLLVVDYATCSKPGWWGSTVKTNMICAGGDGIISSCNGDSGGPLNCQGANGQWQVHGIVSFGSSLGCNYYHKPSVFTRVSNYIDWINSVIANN

Chymotrypsinogen A [5] = biological target: T2, Chymotrypsinogen A; experiment: Competitive inhibition constant against Chymotrypsinogen using the reporter substrate Suc-AAPA-pNa
Serine protease 1 [6] = biological target: T1, Serine protease 1
Neutrophil elastase [7] = biological target: T4, Neutrophil elastase (Homo sapiens, UniProt P08246); experiment: Competitive inhibition constant against Human neutrophil elastase using the reporter substrate MeO-AAPV-pNa; NI means no inhibition
T4 sequence (P08246 whole entry): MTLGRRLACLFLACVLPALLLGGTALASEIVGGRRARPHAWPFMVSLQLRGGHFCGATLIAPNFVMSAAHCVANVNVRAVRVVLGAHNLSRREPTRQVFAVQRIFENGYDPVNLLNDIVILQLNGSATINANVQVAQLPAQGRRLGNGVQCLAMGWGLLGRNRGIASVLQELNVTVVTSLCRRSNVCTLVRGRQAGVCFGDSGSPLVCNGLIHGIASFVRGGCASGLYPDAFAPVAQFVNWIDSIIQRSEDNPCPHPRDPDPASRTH

[8] = biological target: T5, Chymotrypsin-like elastase family member 2A (Sus scrofa) (UniProt P08419)
T5 sequence (whole entry): T3 sequence (P08419 whole entry)
Description: Peptide was tested for inhibition constant for competitive inhibition using Suc-AAPA-pNa and Pancreatic elastase

Neutrophil elastase [9] = biological target: T4, Neutrophil elastase; experiment: Competitive inhibition constant against Human neutrophil elastase using the reporter substrate MeO-AAPV-pNa

T1 sequence (P07477 whole entry): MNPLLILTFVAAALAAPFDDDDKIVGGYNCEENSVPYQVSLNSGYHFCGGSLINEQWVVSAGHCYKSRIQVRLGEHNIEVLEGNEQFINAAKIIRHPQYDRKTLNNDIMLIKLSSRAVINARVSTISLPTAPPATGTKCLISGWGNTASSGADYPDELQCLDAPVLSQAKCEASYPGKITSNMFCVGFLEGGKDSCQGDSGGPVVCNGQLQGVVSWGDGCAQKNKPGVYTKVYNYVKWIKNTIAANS
Pancreatic elastase (Sus scrofa), sequence (P00772 whole entry, looked up, one chain of several): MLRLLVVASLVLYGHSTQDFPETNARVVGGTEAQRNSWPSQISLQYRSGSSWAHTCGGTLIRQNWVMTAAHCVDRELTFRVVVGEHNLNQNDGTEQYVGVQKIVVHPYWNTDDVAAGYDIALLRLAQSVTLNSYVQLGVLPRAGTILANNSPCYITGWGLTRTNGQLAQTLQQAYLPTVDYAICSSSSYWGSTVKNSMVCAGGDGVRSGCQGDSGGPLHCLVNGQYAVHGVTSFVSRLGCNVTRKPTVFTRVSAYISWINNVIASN

Q: Which Ki (Serine protease 1 [1]) does the source give for `CC[C@H](C)[C@H](NC(=O)[C@H](C)NC(=O)[C@H](CCC(=O)O)NC(=O)[C@H](CC(C)C)NC(=O)[C@H](Cc1ccccc1)NC(=O)[C@@H](N)CCSC)C(=O)N1CCC[C@H]1C(=O)N[C@@H](CCCCN)C(=O)O` here?
A: 540 µM

Q: What about the Ki (Chymotrypsinogen A [2]) of the same compound?
A: Not Active

Q: For `CC[C@H](C)[C@H](NC(=O)[C@H](C)NC(=O)[C@H](CCC(=O)O)NC(=O)[C@H](CC(C)C)NC(=O)[C@@H](N)Cc1ccccc1)C(=O)N1CCC[C@@H]1C(=O)N[C@H](CCSC)C(=O)O`, which Ki' [3] is on record?
A: 530 µM

Q: For `CC[C@@H](C)[C@@H](NC(=O)[C@@H](CC)NC(=O)[C@@H](CCC(=O)O)NC(=O)[C@@H](CC(C)C)NC(=O)[C@@H](Cc1ccccc1)NC(=O)[C@H](N)CCSC)C(=O)N1CCC[C@H]1C(=O)O`, which Ki' [3] is on record?
A: 220 µM

Q: `CC[C@H](C)[C@H](NC(=O)[C@H](C)NC(=O)[C@H](CCC(=O)O)NC(=O)[C@H](CC(C)C)NC(=O)[C@H](Cc1ccccc1)NC(=O)[C@@H](N)CCSC)C(=O)N1CCC[C@H]1C(=O)N[C@@H](CCSC)C(=O)O` was tested. Which Ki [4] did it give?
A: No inhibition

Q: And the Ki (Chymotrypsinogen A [5])?
A: 2300 µM

Q: And the Ki (Serine protease 1 [6])?
A: Not Active

Q: Which results are given for `CC[C@@H](C)[C@@H](NC(=O)[C@@H](C)NC(=O)[C@@H](CCC(=O)O)NC(=O)[C@@H](CC(C)C)NC(=O)[C@@H](Cc1ccccc1)NC(=O)[C@H](N)CCSC)C(=O)N1CCC[C@H]1C(=O)N[C@H](CCCCN)C(=O)O`?
A: Ki' [3]: 640 µM; Ki (Neutrophil elastase [7]): Not Active

Q: What does the source list for `CC[C@@H](C)[C@@H](NC(=O)[C@@H](C)NC(=O)[C@@H](CCC(=O)O)NC(=O)[C@@H](CC(C)C)NC(=O)[C@@H](Cc1ccccc1)NC(=O)[C@H](N)CCSC)C(=O)N1CCC[C@H]1C(=O)N[C@@H](CCSC)C(=O)O`?
A: Ki' [3]: 440 µM; Ki' [8]: No inhibition; Ki (Neutrophil elastase [9]): 270 µM

Q: Which results are given for `CC[C@@H](C)[C@H](NC(=O)[C@H](CO)NC(=O)[C@H](CCSC)NC(=O)[C@@H]1CCCN1C(=O)[C@H](NC(=O)[C@@H](C)NC(=O)[C@@H](CCC(=O)O)NC(=O)[C@@H](CC(C)C)NC(=O)[C@@H](Cc1ccccc1)NC(=O)[C@H](N)CCSC)[C@H](C)CC)C(=O)O`?
A: Ki' [3]: 340 µM; Ki (Neutrophil elastase [9]): 27 µM

Q: For `CC[C@H](C)[C@H](NC(=O)[C@H](C)NC(=O)[C@H](CCC(=O)O)NC(=O)[C@H](CC(C)C)NC(=O)[C@H](Cc1ccccc1)NC(=O)[C@@H](N)CCSC)C(=O)N1CCC[C@H]1C(=O)N[C@@H](CCSC)C(=O)N[C@@H](CO)C(=O)O`, which Ki (Chymotrypsinogen A [5]) is on record?
A: 3100 µM

Q: What about the Ki (Serine protease 1 [6]) of the same compound?
A: Not Active

Q: Which Ki' [3] does the source give for `CC[C@@H](C)[C@@H](NC(=O)[C@@H](C)NC(=O)[C@@H](CCC(=O)O)NC(=O)[C@@H](CC(C)C)NC(C)=O)C(=O)N1CCC[C@H]1C(=O)N[C@@H](CCSC)C(=O)O` here?
A: 890 µM

Q: With H-MFLEAIPMSIPPE-OH as the compound, how does the Ki (Chymotrypsinogen A [5]) read?
A: 240 µM

Q: What does the source list for `CC[C@H](C)[C@H](NC(=O)[C@H](CO)NC(=O)[C@H](CCSC)NC(=O)[C@@H]1CCCN1C(=O)[C@@H](NC(=O)[C@H](C)NC(=O)[C@H](CCC(=O)O)NC(=O)[C@H](CC(C)C)NC(=O)[C@H](Cc1ccccc1)NC(=O)[C@@H](N)CCSC)[C@@H](C)CC)C(=O)O`?
A: Ki (Chymotrypsinogen A [5]): 160 µM; Ki (Serine protease 1 [6]): Not Active

Q: For `CC(C)C[C@H](NC(=O)[C@@H](N)Cc1ccccc1)C(=O)N[C@@H](CCC(=O)O)C(=O)O` (H-Phe-Leu-Glu-OH), which Ki' [3] is on record?
A: 1400 µM

Q: `CSCC[C@H](N)C(=O)N[C@@H](Cc1ccccc1)C(=O)N[C@@H](CC(C)C)C(=O)N[C@@H](C)C(=O)O` (H-MFLA-OH) was tested. Which Ki' [3] did it give?
A: 890 µM

Q: Which results are given for `CSCC[C@@H](N)C(=O)N[C@H](Cc1ccccc1)C(=O)N[C@H](CC(C)C)C(=O)N[C@H](CCC(=O)O)C(=O)O`?
A: Ki' [3]: 370 µM; Ki (Chymotrypsinogen A [2]): Not Active; Ki (Serine protease 1 [6]): Not Active; Ki (Neutrophil elastase [7]): Not Active

Q: `CC[C@@H](C)[C@@H](NC(=O)[C@@H](C)NC(=O)[C@@H](CCC(=O)O)NC(=O)[C@@H](CC(C)C)NC(=O)[C@@H](Cc1ccccc1)NC(=O)[C@H](N)CCSC)C(=O)N1CCC[C@H]1C(=O)N[C@@H](CCSC)C(=O)N[C@@H](CO)C(=O)O` was tested. Which Ki' [3] did it give?
A: 1200 µM

Q: What about the Ki (Neutrophil elastase [9]) of the same compound?
A: 190 µM
